Data from US7575910B2, “Method for producing L-fuculose and method for producing L-fucose” (priority 2004, dated 2009).
Where two headings read alike, the source gives them in different places.

How the values were obtained:
[1] = biological target: T1, FcDH (Gluconobacter thailandicus, UniProt A0ABQ0IZX0); experiment: Bivalent metal ion specificity of FcDH; format: biochemical, Gluconobacter oxydans IFO 3255
[2] = biological target: T2, FcDH (L-fuculose-producing L-fucitol dehydrogenase) (Gluconobacter thailandicus, UniProt A0ABQ0IZX0); experiment: Substrate specificity of purified FcDH (kcat, Km by Lineweaver-Burk plot); format: biochemical, Gluconobacter oxydans IFO 3255; settings: for substrate concentration at which a reduction of the specific activity (inhibition by the substrate) was observed: FIG. 12
T2 sequence (A0ABQ0IZX0 1-257): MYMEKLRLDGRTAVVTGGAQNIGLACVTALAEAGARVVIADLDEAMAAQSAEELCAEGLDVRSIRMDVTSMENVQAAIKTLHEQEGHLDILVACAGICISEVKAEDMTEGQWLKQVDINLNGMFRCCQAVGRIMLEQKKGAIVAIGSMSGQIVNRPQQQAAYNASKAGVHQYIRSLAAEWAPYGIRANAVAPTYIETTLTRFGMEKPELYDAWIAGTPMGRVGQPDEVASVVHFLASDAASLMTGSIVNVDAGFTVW
Experimental: The measurement was started when NAD was added. […] The measurement was performed consecutively three times.
Values of kcat and Km for each substrate were obtained by measuring the initial rate of the reaction with various substrate concentrations and drawing a Lineweaver-Burk plot of the results.
Lineweaver-Burk plots of the results in (A) and (B) are shown in FIG. 12 (C) and (D), respectively. The Km and kcat values were calculated from the range in which substrate inhibition was not observed, i.e., from a straight line represented by a broken line in FIG. 12 (C) and (D).

[3] = biological target: T1, FcDH; experiment: Oxidation products of substrates by purified FcDH, HPLC; format: biochemical, Gluconobacter oxydans IFO 3255; settings: 0.5 g/dl substrate, NOX, catalase, 30° C., 16 hours
Experimental: Among the substrates recognized by FcDH, the oxidation product of L-fucitol is L-fuculose, and the oxidation products of the other substrates were examined. The substrates used were D-arabitol, D-mannitol and D-sorbitol. A reaction solution containing 0.5 g/dl of the substrate, 50 mM Gly-NaOH (pH 9.5), 1 mM NAD, 30 mM FAD, 5 mM MgCl2, 0.6 U/ml purified FcDH, 0.2 U/ml NOX, and 0.1 mg/ml catalase was reacted at 30° C. for 16 hours, and analyzed by HPLC (FIG. 13).

[4] = biological target: NOX (NADH oxidase) (Gluconobacter thailandicus, UniProt A0ABQ0IUG6); experiment: NOX activity: NADH/NADPH and flavin coenzyme specificity; format: biochemical, Gluconobacter oxydans IFO 3255; settings: for NOX activation effect of flavin coenzyme: flavin 0 to 300 μM, FIG. 19
Experimental: (§1) The change in absorbance in the first minute was taken as an initial rate, and the activity was calculated therefrom. The experimental group without the enzyme source was used as a blank. […] The measurement was taken three consecutive times. Their mean value was taken and is shown in the figure with the standard deviation.
The concentration of flavin in the reaction solution was 0 to 300 μM, and the others were adjusted to standard conditions.
The Km value for the substrate was calculated by measuring the activity with a variety of substrate concentrations and drawing a Lineweaver-Burk plot of the results.

[5] = tested on: L-fucitol dehydrogenase in cell free extract of G. oxydans IFO 3255 sldA:Kmr mutant strain; experiment: NAD(P)-dependent L-fucitol oxidation activity in cell free extract; format: biochemical, Gluconobacter oxydans IFO 3255 sldA:Kmr
Experimental: Subsequently, 1 ml of the medium was added to 50 ml of the same liquid medium, and cultured at 30° C. for 18 hours using a 500 ml Sakaguchi flask. The microbial cells were collected by centrifuging this medium, washed with 9 g/l of NaCl, and sonicated with 200 W for 10 minutes to yield the disrupted microbial cells. These cells were further centrifuged at 15,000 g for 15 minutes to yield the supernatant, which was then used as a cell-free extract. […] The experiment was also performed without L-fucitol as the control.

[6] = Experimental: as §1
As pH buffers, sodium citrate buffer (pH 3.6, 4.7, 5.7), sodium acetate buffer (pH 4.8, 5.7), potassium phosphate buffer (pH 6.4, 7.2), Tris-HCl buffer (pH 6.7, 7.6, 8.5), and CAPS-NaOH buffer (pH 8.3, 9.5) were used.
(§2) The activity of the purified preparations of rFcDH and rNOX that had been purified as described above was also measured.

[7] = substrate: NC(=O)c1ccc[n+]([C@@H]2O[C@H](COP(=O)([O-])OP(=O)(O)OC[C@H]3O[C@@H](n4cnc5c(N)ncnc54)[C@H](O)[C@@H]3O)[C@@H](O)[C@H]2O)c1; experiment: NAD and NADP specificity of FcDH; format: biochemical, Gluconobacter oxydans IFO 3255; settings: other: FcDH, Lineweaver-Burk plot, FIG. 14; pH 9.5; 30.0 °C
Experimental: The activity was measured by adding NAD or NADP at various concentrations under standard conditions. The Km value for each coenzyme was calculated by drawing a Lineweaver-Burk plot of the results (FIG. 14 (B)).

[8] = remark: listed apart in the source
Experimental: The measurement was started when NAD was added. The change in absorbance in the first minute was taken as the initial rate, and the activity was calculated therefrom. […] The measurement was performed consecutively three times. Their mean value was taken and is shown in the figure with the standard deviation.
As pH buffers, sodium acetate buffer (pH 4.8, 5.7), potassium phosphate buffer (pH 6.4, 7.2), Tris-HCl buffer (pH 6.7, 7.6, 8.5), CAPS-NaOH buffer (Sodium cyclohexylaminopropanesulfonate) (pH 8.3, 9.5) and sodium carbonate buffer (pH 10.1, 10.7, 11.2) were used.
A solution containing 0.1M pH buffer and 80 μg/ml purified FcDH was left to stand on ice for 30 minutes, and subsequently the solution was diluted to a final FcDH concentration of 1.6 μg/ml. The reaction was performed under standard conditions, and the remaining FcDH activity was measured.
A solution containing Gly-NaOH (pH 9.5), MgCl2, fucitol, and purified FcDH was preincubated at each temperature (25, 30, 37, 45, 55, or 65° C.) for 3 minutes, and then NAD that had been separately preincubated at each temperature was added thereto to start the reaction. The final concentrations in the reaction solution were adjusted to the standard conditions for activity measurement, and the final concentration of FcDH was 1.6 μg/ml.
A solution containing Gly-NaOH (pH 9.5) and 80 μg/ml purified FcDH was left to stand at 0, 25, 30, 37, 50 or 60° C. for 30 minutes. The solution was then diluted so that the final concentration of FcDH was 1.6 μg/ml. The reaction was performed under standard conditions, and the remaining FcDH activity was measured. The remaining activity of FcDH measured at each temperature is reported (FIG. 11) as the relative percentage as compared to the remaining activity when left to stand at 0° C.
as §2

[9] = 5 mM bivalent metal ion or EDTA
[10] = 5 mM bivalent metal ion or EDTA, relative to specific activity with MnCl2
[11] = substrate, Lineweaver-Burk plot

With `[Ca+2].[Cl-].[Cl-]` [CaCl2] the “effect on FcDH activity” value [1, 9] was “activation effect” and the “RELATIVE ACTIVITY (%)” value [1, 10] was 89.9 ± 3.4%.

For `[Cl-].[Cl-].[Co+2]` [CoCl2], the “RELATIVE ACTIVITY (%)” value [1] was 34.8 ± 1.1% and the “effect on FcDH activity” value [1] was “no effect”.

In the case of `[Cl][Cu][Cl]` [CuCl2], the “effect on FcDH activity” value [1, 9] is reported as “inhibitory effect” and the “RELATIVE ACTIVITY (%)” value [1, 10] is reported as 5.0 ± 0.5%.

In the case of `OC[C@@H](O)C(O)[C@H](O)CO` [D-ARABITOL, D-arabitol], the “substrate concentration at which a reduction of the specific activity (inhibition by the substrate) was observed” value [2] is reported as no less than 5 mM and the “oxidation product identified by HPLC” value [3] is reported as “D-ribulose and D-xylulose”.

In the case of `OC[C@@H](O)[C@@H](O)[C@H](O)[C@H](O)CO` [D-MANNITOL, D-mannitol], the “oxidation product identified by HPLC” value [3] is reported as “D-fructose”.

In the case of `OC[C@@H](O)[C@@H](O)[C@H](O)[C@@H](O)CO` [D-SORBITOL, D-sorbitol], the “oxidation product identified by HPLC” value [3] is reported as “L-sorbose”.

For `Cc1cc2nc3c(=O)[nH]c(=O)nc-3n(C[C@H](O)[C@H](O)[C@H](O)COP(=O)(O)O)c2cc1C` [FMN], the “NOX activation effect of flavin coenzyme” value [4] was “relatively weaker”.

`OCC(O)CO` [GLYCEROL, glycerol] gave a Kcat [2, 11] of 0.9 U · mg−1 and a Km [2, 11] of 10.1 mM.

In the case of `C[C@H](O)[C@@H](O)[C@@H](O)[C@H](O)CO` [L-FUCITOL, L-fucitol], the “substrate concentration at which a reduction of the specific activity (inhibition by the substrate) was observed” value [2] is reported as no less than 100 mM, the Dehydrogenase activity ([5]; coenzyme NAD, pH 6.0) is reported as 3.1 ×10^−3 U/mg and the Dehydrogenase activity ([5]; coenzyme NAD, pH 8.8) is reported as 18.4 ×10^−3 U/mg. For the same molecule, the Dehydrogenase activity ([5]; coenzyme NADP, pH 6.0) was 0.0 ×10^−3 U/mg and the Dehydrogenase activity ([5]; coenzyme NADP, pH 8.8) was 1.9 ×10^−3 U/mg.

With `[Cl-].[Cl-].[Mg+2]` [MgCl2] the “effect on FcDH activity” value [1, 9] was “activation effect” and the “RELATIVE ACTIVITY (%)” value [1, 10] was 93.7 ± 2.9%.

In the case of `[Cl][Mn][Cl]` [MnCl2], the “effect on FcDH activity” value [1, 9] is reported as “activation effect” and the “RELATIVE ACTIVITY (%)” value [1, 10] is reported as 100.0 ± 6.9%.

In the case of `NC(=O)C1=CN([C@@H]2O[C@H](COP(=O)(O)OP(=O)(O)OC[C@H]3O[C@@H](n4cnc5c(N)ncnc54)[C@H](OP(=O)(O)O)[C@@H]3O)[C@@H](O)[C@H]2O)C=CC1` [NADPH], the “NOX activity with NADPH as the substrate” value ([4]; data not shown) is reported as “no significant activity”.

With `[Cl][Ni][Cl]` [NiCl2] the “effect on FcDH activity” value [1, 9] was “no effect” and the “RELATIVE ACTIVITY (%)” value [1, 10] was 42.4 ± 0.7%.

In the case of `O=S(=O)([O-])[O-].[Zn+2]` [ZnSO4], the “effect on FcDH activity” value [1, 9] is reported as “inhibitory effect” and the “RELATIVE ACTIVITY (%)” value [1, 10] is reported as 11.7 ± 0.5%.

For `Cc1cc2nc3c(=O)[nH]c(=O)nc-3n(C[C@H](O)[C@H](O)[C@H](O)CO)c2cc1C` [riboflavin], the “NOX activation effect of flavin coenzyme” value [4] was “NOX activation effect was observed”.

B1: NOX: NADH oxidase purified from G. oxydans IFO 3255, SEQ ID NO:18 (protein)
chain: MTILNEQDFRRAMSHFATGVAVVTAKGSEGEQGATISALTSVSLDPLLLLICLHRGSSTYKAIAEAGRFGLSILNNSHKDVAMLFASRTADKFGSDVVVRAEDGTAFIDGALVQMHCELVETFQGGTHALFMARPTSITVRDEAPLLYFQGQLGVEA
modifications: Gluconobacter oxydans
In the case of B1, the “remaining activity (temperature stability)” value ([6]; 0.5 h) is reported as no less than 80%, the “pH of maximum specific activity” value ([6]; FIG. 15, 30° C.) is reported as 5.7 and the “temperature of maximum specific activity” value ([6]; FIG. 17, pH 8.0) is reported as 37 °C. For the same molecule, the “remaining activity (pH stability)” value ([6]; buffer, 0.5 h, pH 8.8) was no less than 80% and the “specific activity of NOX” value ([6]; purified preparation, 0.2 mM NADH, 30 μM FAD, pH 8.0, 30° C.) was 196 U/mg.

B2: FcDH (Gluconobacter thailandicus NBRC 3257) (protein)
chain: T2 sequence (A0ABQ0IZX0 1-257)
Molecule B2 has a Km [7] of 0.20 mM.

B3: FcDH: L-fuculose-producing L-fucitol dehydrogenase purified from G. oxydans IFO 3255, SEQ ID NO:16 (protein)
chain: T2 sequence (A0ABQ0IZX0 1-257)
modifications: Gluconobacter oxydans
For B3, the “remaining activity (temperature stability)” value ([8]; 0.5 h) was no less than 80%, the “pH of maximum specific activity” value ([8]; FIG. 8, 30° C.) was 9.5 and the “temperature of maximum specific activity” value ([8]; FIG. 10, pH 9.5) was 37 °C. The “remaining activity (pH stability)” value ([8]; buffer, 0.5 h, pH 7.2) was no less than 80% and the “specific activity of FcDH” value ([8]; purified preparation, 10 mM L-fucitol, 1 mM NAD, pH 9.5, 30° C.) was 7.8 U/mg.
